Assay results from patent publication US20110034371A1, “L. CASEI RHAMNOSUS SECRETED FACTORS AND USE THEREOF” (priority 2009, published 2011).

What was measured:
[1] = system: THP-1 cells; assay: Annexin V-FITC and PI staining, flow cytometry: apoptosis of THP-1 cells; type: cell-based, human
Method: (§1) Lymphocytes, monocytes and THP-1 cells (10^6 per test) were collected after incubation with LcrS, 3.125-25 μg mL^−1, for various times. After washing twice with PBS, the cells were resuspended in Annexin V binding buffer (10 mM HEPES-NaOH (pH 7.4), 140 mM NaCl, and 2.5 mM CaCl2). After centrifugation, the cells were incubated in 500 μl of the same buffer containing 1.25 it FITC-conjugated Annexin V (BD PharMingen, San Diego, Calif., USA) at room temperature for 15 min in the dark. Data acquisition and analysis were performed by the Becton-Dickinson FACSan flow cytometer (Franklin Lakes, N.J., USA) using CellQuest software (Becton-Dickinson, Oxford, UK). […]
as §1, with “500 W” for “500 μl”, “1.25 μl” for “1.25 it”
as §1, with “1.25 μl” for “1.25 it”
The TGF-β regulates a wide variety of biological functions including apoptosis. The TGF-β production was increasing in the LcrS5-30 treated THP-1 cells. It was reasonable to postulate that apoptosis might be triggered by TGF-β rather than the LcrS5-30. To confirm this assumption, a pharmacological inhibitor, SB431542, would be applied. The percentages of apoptotic cells in 10 ng mL^−1 and 1 ng mL^−1 TGF-β exposed preparations were 18.9±0.44% and 16.57±0.67%, respectively (FIG. 8B). Treatment with 12.5 μg mL^−1 or 25 μg mL^−1 of the LcrS5-30 induced dissimilar level of apoptosis of THP-1 cells that were 26.35±0.77% and 74.96±0.38%, respectively.

[2] = system: human peripheral blood T cells; settings: 18 h culture, 5 μg mL^−1; cited from earlier work

Question: With `NC(=O)c1ccc(-c2nc(-c3ccc4c(c3)OCO4)c(-c3ccccn3)[nH]2)cc1` [SB-431542] as the compound, how does the “blocking of TGF-β1-induced apoptosis” value ([1]; 1 μg mL^−1 inhibitor, 24 h) read?
Answer: significantly blocked

Question: And the blocking of apoptosis ([1]; 1 μg mL^−1 inhibitor, 24 h)?
Answer: significantly blocked

Question: Which “percentage of apoptotic cells” value ([1]; 1 ng mL^−1, 24 h) does the source give for “TGF-β: anti-inflammatory cytokine applied to THP-1 cells at 1 and 10 ng mL^−1” here?
Answer: 16.57±0.67%

Question: And the “percentage of apoptotic cells” value ([1]; 10 ng mL^−1, 24 h)?
Answer: 18.9±0.44%

Question: What about the “induced apoptosis in the presence of TGF-β inhibitor SB431542” value ([1]; One ng mL^−1, 1 μg mL^−1 SB431542, 24 h) of the same compound?
Answer: SB431542 sensitive

Question: For infliximab, which “killing activity (as much as)” value [2] is on record?
Answer: ≤ 50.6%
